The source of these data is patent US20240024488A1, “COMPOUNDS AND USES THEREOF” (Foghorn Therapeutics Inc., priority 2020, published 2024).

One assay concerns the target T1, HiBit-BRM fusion protein (Homo sapiens, UniProt P51531).
T1 construct: expressed in transfected cells
Kind of assay: HiBiT-BRM cell-based degradation assay (Nano-Glo HiBiT Lytic Detection, 24 h). The following applies: HeLa cell line expressing HiBiT-BRM; for DC50: read-out: BRM HiBit Degradation IC50. Here is the method:
(§1) Procedure: A stable HeLa cell line expressing HiBiT-BRM was generated. On day 0, 5000 cells were seeded in 40 μL of media into each well of 384-well cell culture plates. On day 1, cells were treated with 120 nL DMSO or 120 nL of 3-fold serially DMSO-diluted compounds (10 points in duplicate with 30 μM as final top dose). Subsequently plates were incubated for 24 h in a standard tissue culture incubator and equilibrated at room temperature for 15 minutes. Nano-Glo HiBiT Lytic Detection System (Promega N3050) reagent was freshly prepared and 20 ul was added to each well. Upon addition of this LgBit-containing reagent, the HiBiT and LgBiT proteins associate to form the luminescent NanoBiT luciferase. The plates were shaken for 10 minutes at room temperature and the bioluminescence read using an EnVision plate reader (PerkinElmer).
(§2) The degradation % was calculated using the following formula: % degradation=100%−100%×(LumSample−LumLC)/(LumHC−LumLC). DMSO treated cells are employed as High Control (HC) and 2 μM of a known BRM/BRG1 degrader standard treated cells are employed as Low Control (LC).

The target of assay [1] is T2, HiBit-BRG1 fusion protein (Homo sapiens, UniProt P51532).
T2 construct: expressed in transfected cells
Kind of assay: HiBiT-BRG1 cell-based degradation assay (Nano-Glo HiBiT Lytic Detection, 24 h). The following applies: HeLa cell line expressing HiBit-BRG1 and LgBit; for Dmax: read-out: BRG1 HiBit Degradation Maximum (%); for DC50: read-out: BRMG1 HiBit Degradation IC50. As for the experimental part: as §1, with “On day 1, cells were treated with 120 nL DMSO or 120 nL of 3-fold serially DMSO-diluted compounds (10 points in duplicate with 30 μM as final top dose).” left out
For measurement of BRG1 degradation, a stable HeLa cell line expressing HiBit-BRG1 and LgBit was generated. The same protocol as above was then followed.
as §2
On the technique in general: With HiBiT, luminescence reflects the tagged protein that the partner subunit can reach.

T1 sequence (P51531 whole entry, the tested form may be a part): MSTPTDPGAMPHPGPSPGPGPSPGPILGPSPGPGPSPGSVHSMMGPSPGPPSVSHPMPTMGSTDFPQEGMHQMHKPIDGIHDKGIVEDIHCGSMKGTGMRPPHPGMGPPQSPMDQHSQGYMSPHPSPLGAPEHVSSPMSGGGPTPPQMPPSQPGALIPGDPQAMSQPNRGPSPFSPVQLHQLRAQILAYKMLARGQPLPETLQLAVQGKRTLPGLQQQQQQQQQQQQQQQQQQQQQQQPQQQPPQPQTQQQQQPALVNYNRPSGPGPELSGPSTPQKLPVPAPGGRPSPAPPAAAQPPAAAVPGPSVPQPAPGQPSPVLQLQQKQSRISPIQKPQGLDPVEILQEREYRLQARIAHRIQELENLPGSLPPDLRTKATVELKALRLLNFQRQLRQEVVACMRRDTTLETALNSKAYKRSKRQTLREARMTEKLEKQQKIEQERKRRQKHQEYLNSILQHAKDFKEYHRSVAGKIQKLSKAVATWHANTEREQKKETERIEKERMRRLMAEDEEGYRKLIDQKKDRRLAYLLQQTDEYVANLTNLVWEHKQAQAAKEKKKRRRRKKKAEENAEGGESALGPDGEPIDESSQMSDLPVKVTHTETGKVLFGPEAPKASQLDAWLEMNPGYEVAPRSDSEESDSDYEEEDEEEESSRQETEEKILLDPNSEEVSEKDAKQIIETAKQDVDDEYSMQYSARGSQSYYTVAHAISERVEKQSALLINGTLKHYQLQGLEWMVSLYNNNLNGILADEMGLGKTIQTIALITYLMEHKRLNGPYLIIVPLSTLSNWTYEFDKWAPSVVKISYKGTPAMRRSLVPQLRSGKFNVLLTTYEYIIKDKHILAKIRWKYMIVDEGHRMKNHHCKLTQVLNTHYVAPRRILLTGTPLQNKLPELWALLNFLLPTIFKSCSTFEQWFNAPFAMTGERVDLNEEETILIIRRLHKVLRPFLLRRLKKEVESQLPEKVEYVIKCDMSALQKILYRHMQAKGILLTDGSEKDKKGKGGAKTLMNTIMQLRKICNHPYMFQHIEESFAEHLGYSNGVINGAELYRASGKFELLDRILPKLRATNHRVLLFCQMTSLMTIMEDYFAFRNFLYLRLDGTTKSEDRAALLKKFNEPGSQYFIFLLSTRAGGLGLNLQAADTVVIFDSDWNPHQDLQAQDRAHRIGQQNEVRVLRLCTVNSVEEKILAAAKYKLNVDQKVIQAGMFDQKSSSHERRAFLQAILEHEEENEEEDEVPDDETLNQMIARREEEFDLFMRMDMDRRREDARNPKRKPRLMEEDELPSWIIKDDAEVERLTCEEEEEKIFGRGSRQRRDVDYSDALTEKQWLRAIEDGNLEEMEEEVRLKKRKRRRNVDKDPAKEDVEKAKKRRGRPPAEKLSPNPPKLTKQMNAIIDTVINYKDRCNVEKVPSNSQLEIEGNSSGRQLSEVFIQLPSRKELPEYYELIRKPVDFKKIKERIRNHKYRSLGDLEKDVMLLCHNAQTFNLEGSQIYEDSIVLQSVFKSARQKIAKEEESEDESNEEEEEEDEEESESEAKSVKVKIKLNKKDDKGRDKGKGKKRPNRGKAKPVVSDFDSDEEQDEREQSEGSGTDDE
T2 sequence (P51532 whole entry, the tested form may be a part): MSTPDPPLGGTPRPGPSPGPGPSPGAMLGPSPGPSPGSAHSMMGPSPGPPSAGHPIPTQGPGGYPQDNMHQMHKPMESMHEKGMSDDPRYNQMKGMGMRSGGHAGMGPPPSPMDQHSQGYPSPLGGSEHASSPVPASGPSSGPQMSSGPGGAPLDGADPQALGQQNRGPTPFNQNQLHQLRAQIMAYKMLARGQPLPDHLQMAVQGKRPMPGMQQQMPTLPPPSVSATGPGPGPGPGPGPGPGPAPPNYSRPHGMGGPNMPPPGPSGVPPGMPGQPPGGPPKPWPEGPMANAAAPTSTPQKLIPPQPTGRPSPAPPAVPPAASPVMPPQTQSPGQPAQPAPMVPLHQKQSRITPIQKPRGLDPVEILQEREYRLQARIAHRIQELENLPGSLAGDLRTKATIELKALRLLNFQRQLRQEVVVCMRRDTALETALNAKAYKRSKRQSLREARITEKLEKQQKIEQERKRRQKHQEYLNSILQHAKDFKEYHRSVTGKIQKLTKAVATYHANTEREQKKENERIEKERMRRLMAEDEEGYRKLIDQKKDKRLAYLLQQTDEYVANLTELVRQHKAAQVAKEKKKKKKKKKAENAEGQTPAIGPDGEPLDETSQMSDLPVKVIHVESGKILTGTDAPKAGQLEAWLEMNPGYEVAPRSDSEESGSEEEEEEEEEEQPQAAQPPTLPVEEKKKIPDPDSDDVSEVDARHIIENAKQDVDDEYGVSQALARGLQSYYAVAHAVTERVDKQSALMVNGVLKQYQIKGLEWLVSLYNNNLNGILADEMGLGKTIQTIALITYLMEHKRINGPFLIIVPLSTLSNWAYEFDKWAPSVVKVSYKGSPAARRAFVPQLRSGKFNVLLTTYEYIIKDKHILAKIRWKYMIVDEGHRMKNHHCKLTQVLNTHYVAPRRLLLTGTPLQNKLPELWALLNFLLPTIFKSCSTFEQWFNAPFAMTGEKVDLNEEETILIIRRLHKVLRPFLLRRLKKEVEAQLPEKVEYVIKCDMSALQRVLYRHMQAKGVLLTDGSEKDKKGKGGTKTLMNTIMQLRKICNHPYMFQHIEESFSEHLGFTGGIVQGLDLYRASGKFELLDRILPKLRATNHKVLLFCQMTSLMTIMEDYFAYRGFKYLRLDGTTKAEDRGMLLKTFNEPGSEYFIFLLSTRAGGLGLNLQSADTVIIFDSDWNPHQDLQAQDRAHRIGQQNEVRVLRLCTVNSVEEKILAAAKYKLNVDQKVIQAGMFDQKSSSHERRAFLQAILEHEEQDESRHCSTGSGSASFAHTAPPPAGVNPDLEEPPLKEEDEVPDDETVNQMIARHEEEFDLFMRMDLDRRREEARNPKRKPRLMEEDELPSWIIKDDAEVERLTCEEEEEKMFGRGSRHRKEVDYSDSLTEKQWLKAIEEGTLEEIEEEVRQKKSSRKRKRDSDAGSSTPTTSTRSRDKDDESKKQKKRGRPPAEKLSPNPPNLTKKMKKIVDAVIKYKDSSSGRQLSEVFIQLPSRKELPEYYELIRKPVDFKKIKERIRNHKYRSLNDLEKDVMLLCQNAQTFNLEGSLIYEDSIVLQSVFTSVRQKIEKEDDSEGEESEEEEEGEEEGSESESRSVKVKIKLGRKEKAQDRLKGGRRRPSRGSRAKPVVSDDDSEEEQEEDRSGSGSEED

In the case of `O=C1CCC(N2C(=O)c3ccc(NCCCCCCCCCCC(=O)N4CC(c5cc6cc(-c7ccccc7O)nnc6[nH]5)C4)cc3C2=O)C(=O)N1` (centres unmarked) [Compound 32, 2-(2,6-dioxopiperidin-3-yl)-5-((11-(3-(3-(2-hydroxyphenyl)-7H-pyrrolo[2,3-c]pyridazin-6-yl)azetidin-1-yl)-11-oxoundecyl)amino)isoindoline-1,3-dione], on HiBit-BRM fusion protein, the “BRM HiBit Degradation Maximum (%)” value is “C (“C” indicates maximum degradation < 50%)”. In assay [1], the Dmax was less than 50%.
On to `Cc1ncsc1-c1ccc([C@H](C)NC(=O)[C@@H]2C[C@@H](O)CN2C(=O)[C@@H](c2cc(OCCN3CCC[C@H](c4cc5cc(-c6ccccc6O)nnc5[nH]4)C3)no2)C(C)C)cc1` (racemic) [Compound 278, (2S,4R)-4-hydroxy-1-((R)-2-(3-(2-((S)-3-(3-(2-hydroxyphenyl)-7H-pyrrolo[2,3-c]pyridazin-6-yl)piperidin-1-yl)ethoxy)isoxazol-5-yl)-3-methylbutanoyl)-N-((S)-1-(4-(4-methylthiazol-5-yl)phenyl)ethyl)pyrrolidine-2-carboxamide], for which, on HiBit-BRM fusion protein, the “BRM HiBit Degradation Maximum (%)” value is listed as “A (“A” indicates maximum degradation ≥ 75%)” and the DC50 was more than 10 nM. Also, in assay [1], the Dmax was more than 50% and the DC50 is more than 10 nM.
Regarding `Cc1ncsc1-c1ccc(CNC(=O)[C@@H]2C[C@@H](O)CN2C(=O)[C@@H](NC(=O)CCCCCCCC(=O)N2CC(c3cc4cc(-c5ccccc5O)nnc4[nH]3)C2)C(C)(C)C)cc1` [Compound 10, (2S,4R)-4-hydroxy-1-((S)-2-(9-(3-(3-(2-hydroxyphenyl)-7H-pyrrolo[2,3-c]pyridazin-6-yl)azetidin-1-yl)-9-oxononanamido)-3,3-dimethylbutanoyl)-N-(4-(4-methylthiazol-5-yl)benzyl)pyrrolidine-2-carboxamide], at HiBit-BRM fusion protein, the “BRM HiBit Degradation Maximum (%)” value is recorded as “B (“B” indicates maximum degradation ≥ 50%)” and the DC50 was more than 1000 nM. The Dmax in assay [1] was less than 50%.
Taken in the same sequence, the figures for `Cc1ncsc1-c1ccc([C@H](C)NC(=O)[C@@H]2C[C@@H](O)CN2C(=O)[C@@H](c2cc(OCCNCc3cc4cc(-c5ccccc5O)nnc4[nH]3)no2)C(C)C)cc1` (racemic) [Compound 212, (2S,4R)-4-hydroxy-1-((R)-2-(3-(2-(((3-(2-hydroxyphenyl)-7H-pyrrolo[2,3-c]pyridazin-6-yl)methyl)amino)ethoxy)isoxazol-5-yl)-3-methylbutanoyl)-N-((S)-1-(4-(4-methylthiazol-5-yl)phenyl)ethyl)pyrrolidine-2-carboxamide] were “A (“A” indicates maximum degradation ≥ 75%)”, more than 100 nM and less than 50%.
Consider `Cc1ncsc1-c1ccc([C@H](C)NC(=O)[C@@H]2C[C@@H](O)CN2C(=O)[C@@H](c2cc(N3C[C@H]4C[C@@H]3CN4C(=O)[C@H]3C[C@@]4(Cc5cc(-c6ccccc6O)nnc5N4)C3)no2)C(C)C)cc1` (racemic) [Compound 79, (2S,4R)-4-hydroxy-1-((R)-2-(3-((1R,4R)-5-((1R,3s)-3′-(2-hydroxyphenyl)-5′,7′-dihydrospiro[cyclobutane-1,6′-pyrrolo[2,3-c]pyridazine]-3-carbonyl)-2,5-diazabicyclo[2.2.1]heptan-2-yl)isoxazol-5-yl)-3-methylbutanoyl)-N-((S)-1-(4-(4-methylthiazol-5-yl)phenyl)ethyl)pyrrolidine-2-carboxamide], for which the “BRM HiBit Degradation Maximum (%)” value on HiBit-BRM fusion protein is reported as “C (“C” indicates maximum degradation < 50%)”. Further, in assay [1], the Dmax was less than 50%.
`Cc1ncsc1-c1ccc([C@H](C)NC(=O)[C@@H]2C[C@@H](O)CN2C(=O)[C@@H](c2cc(OCCN3CC(COc4c[nH]c5nnc(-c6ccccc6O)cc45)C3)no2)C(C)C)cc1` (racemic) [Compound 185, (2S,4R)-4-hydroxy-1-[(2R)-2-(3-{2-[3-{{[3-(2-hydroxyphenyl)-7H-pyrrolo[2,3-c]pyridazin-5-yl]oxy}methyl)azetidin-1-yl]ethoxy}-1,2-oxazol-5-yl)-3-methylbutanoyl]-N-[(1S)-1-[4-(4-methyl-1,3-thiazol-5-yl)phenyl]ethyl]pyrrolidine-2-carboxamide]: at HiBit-BRM fusion protein, the “BRM HiBit Degradation Maximum (%)” value is “A (“A” indicates maximum degradation ≥ 75%)” and the DC50 was more than 100 nM. For the same compound, in assay [1], the Dmax is more than 75% and the DC50 was more than 1000 nM.
Regarding `Cc1ncsc1-c1ccc([C@H](C)NC(=O)[C@@H]2C[C@@H](O)CN2C(=O)[C@@H](c2cc(CN3CCc4[nH]c5nnc(-c6ccccc6O)cc5c4C3)no2)C(C)C)cc1` (single isomer, unassigned) [Compound 136], the “BRM HiBit Degradation Maximum (%)” value on HiBit-BRM fusion protein is on record as “C (“C” indicates maximum degradation < 50%)”. Further, the Dmax in assay [1] was less than 50%.
For `Cc1ncsc1-c1ccc([C@H](C)NC(=O)[C@@H]2C[C@@H](O)CN2C(=O)[C@@H](c2cc(OCCN3CC(C(C)(C)c4cc5cc(-c6ccccc6O)nnc5[nH]4)C3)no2)C(C)C)cc1` (racemic) [Compound 289, (2S,4R)-4-hydroxy-1-((R)-2-(3-(2-(3-(2-(3-(2-hydroxyphenyl)-7H-pyrrolo[2,3-c]pyridazin-6-yl)propan-2-yl)azetidin-1-yl)ethoxy)isoxazol-5-yl)-3-methylbutanoyl)-N-((S)-1-(4-(4-methylthiazol-5-yl)phenyl)ethyl)pyrrolidine-2-carboxamide], on HiBit-BRM fusion protein, the “BRM HiBit Degradation Maximum (%)” value was “A (“A” indicates maximum degradation ≥ 75%)” and the DC50 is more than 10 nM. The Dmax in assay [1] was less than 50%.
Taken in the same sequence, the figures for `Cc1ncsc1-c1ccc([C@H](C)NC(=O)[C@@H]2C[C@@H](O)CN2C(=O)[C@@H](c2cc(OCCNC3CC[C@]34C[C@H](c3cc5cc(-c6ccccc6O)nnc5[nH]3)C4)no2)C(C)C)cc1` (mixture of isomers) [Compound 132, (2S,4R)-4-hydroxy-1-((R)-2-(3-(2-(((1S,4s,6S)-6-(3-(2-hydroxyphenyl)-7H-pyrrolo[2,3-c]pyridazin-6-yl)spiro[3.3]heptan-1-yl)amino)ethoxy)isoxazol-5-yl)-3-methylbutanoyl)-N-((S)-1-(4-(4-methylthiazol-5-yl)phenyl)ethyl)pyrrolidine-2-carboxamide] were “A (“A” indicates maximum degradation ≥ 75%)”, more than 10 nM and less than 50%.
Taken in the same sequence, the figures for `Cc1ncsc1-c1ccc([C@H](C)NC(=O)[C@@H]2C[C@@H](O)CN2C(=O)[C@@H](c2cc(OCCNC(=O)C(=O)N3CC(c4c[nH]c5nnc(-c6ccccc6O)cc45)C3)no2)C(C)C)cc1` (racemic) [Compound 250, (2S,4R)-4-hydroxy-1-((R)-2-(3-(2-(2-(3-(3-(2-hydroxyphenyl)-7H-pyrrolo[2,3-c]pyridazin-5-yl)azetidin-1-yl)-2-oxoacetamido)ethoxy)isoxazol-5-yl)-3-methylbutanoyl)-N-((S)-1-(4-(4-methylthiazol-5-yl)phenyl)ethyl)pyrrolidine-2-carboxamide] were “A (“A” indicates maximum degradation ≥ 75%)”, more than 100 nM and less than 50%.
